Source: paper PMC9196629, “Synthesis, Characterization and Antitumor Mechanism Investigation of Heterometallic Ru(Ⅱ)-Re(Ⅰ) Complexes” (Frontiers in Chemistry, 2022)

Experiments:
[1] = Stability in human serum albumin (HSA) solution by UV-Vis spectroscopy; assay type: physicochemical; settings: 10 μM, HSA solution, 0, 24 and 48 h
Description: The stabilities of RuRe-1 and RuRe-2 in PBS and human serum albumin (HSA) were tested through UV–Vis spectroscopy.
Supplementary Figure 12. UV-Vis absorption spectra of RuRe-1 (10 μM), RuRe-2 (10 μM), Ru-1 (10 μM), Ru-2 (10 μM) and Re-1 (10 μM) in PBS (A) and HSA (B) solution collected at 0, 24, and 48 h, respectively.

HeLa cells [2] = assay: Hoechst 33342 staining of nuclear morphology; assay type: cell-based, human; settings: 24 h
Description: First, changes in cell morphology of HeLa cells induced by RuRe-1 and RuRe-2 were examined with 2'-(4-ethoxyphenyl)-5-(4-methyl-1-piperazinyl)-2,5′-bi-1H-benzimidazole trihydrochloride (Hoechst 33342) staining. Hoechst 33342 is a blue fluorescent dye that can penetrate cell membranes and is commonly used to stain cell nuclei ([Tian et al., 2018]).
FIGURE 2 RuRe-1 and RuRe-2 induced HeLa cells apoptosis measured by confocal microscopy with Hoechst 33342 staining (λ ex = 405 nm, λ em = 460 ± 20 nm). The incubation time of the compounds was 24 h. Arrows indicate apoptotic morphological nuclei. Scale bar: 20 μm.
Hoechst 33342 staining assay. After HeLa cells were adhered to the confocal dishes, the medium was replaced with a medium containing the indicated concentrations of RuRe-1 and RuRe-2. After incubation for 24 h, the medium was aspirated and the cells were washed three times with PBS, then fixed with 4% paraformaldehyde. Subsequently, cells were labelled 10 mins with Hoechst 33342 (5 μg/mL) and observed immediately under confocal microscope (λex = 405 nm, λem = 460 ± 20 nm).

HeLa cells [3] = assay: Annexin V-FITC/PI double-staining apoptosis assay by flow cytometry; assay type: cell-based, human; settings: 24 h, control 1.81%
Source text: The ability of RuRe-1 and RuRe-2 to induce apoptosis in HeLa cells was further verified using Annexin V-FITC/PI (FITC: fluorescein isothiocyanate; PI: propidium iodide) double-staining. In the early stage of apoptosis, the surface of the cell membrane is […], at which point the phosphatidylserine on the surface of the apoptotic cell flips from the inner cell membrane to the outer cell membrane, where it can be labelled by Annexin V ([Jan and Chaudhry, 2019]). The membrane permeability of PI is poor and thus only necrotic cells can be labelled ([Zec et al., 2014]).
FIGURE 3 RuRe-1 and RuRe-2 induced HeLa cells apoptosis measured by flow cytometry with Annexin V/PI staining. The incubation time of the compounds was 24 h. […]

HeLa cells [4] = assay: Colony formation assay; assay type: cell-based, human; settings: 24 h treatment then 7 days
Description: The consequence of increased local cell migration is distal invasion, and the clonal growth of distal invasive cells will produce a second tumor ([Wang et al., 2017]). We further investigated the ability of RuRe-1 and RuRe-2 to inhibit the formation of cell colonies by cell colony formation assay.
Colony forming assay. HeLa cells were cultured in 6-well plates at a density of 500 cells per well. After cells had adhered, the medium was replaced with medium containing the indicated concentrations of RuRe-1 and RuRe-2 for 24 h. Subsequently, the medium was replaced with fresh medium and the cells were cultured for 7 days to form colonies. The colonies formed were fixed with 4% paraformaldehyde, and stained with crystal violet (0.005%). Finally, colonies were calculated and the images were taken using digital camera.

Row | SMILES | stability in HSA (UV-Vis spectral characteristics and absorption peaks) [1] | nuclear morphology (Hoechst 33342) (HeLa cells [2]) | percentage of apoptotic cells (early apoptotic + late apoptotic) (HeLa cells [3]; 12.4 μM) | cell populations (colonies) compared to the control group (HeLa cells [4]; 9.3 μM) | percentage of apoptotic cells (early apoptotic + late apoptotic) (HeLa cells [3]; 10.0 μM) | cell populations (colonies) compared to the control group (HeLa cells [4]; 7.5 μM)
1 | F[P-](F)(F)(F)(F)F.F[P-](F)(F)(F)(F)F.F[P-](F)(F)(F)(F)F.[C-]#[O+].[C-]#[O+].[C-]#[O+].[Re+].[Ru+2].c1ccc(-c2ccccn2)nc1.c1ccc(-c2ccccn2)nc1.c1ccc(-c2ccnc3c2ccc2c(-c4ccccc4)ccnc23)cc1.c1cnc2c(c1)c1nc(-c3ccncc3)[nH]c1c1cccnc12 [RuRe-1, [Ru(bpy)2LRe(CO)3(DIP)](PF6)3] | no significant change | typical apoptotic characteristics | 22.38% | 4.8% | – | –
2 | F[P-](F)(F)(F)(F)F.F[P-](F)(F)(F)(F)F.F[P-](F)(F)(F)(F)F.[C-]#[O+].[C-]#[O+].[C-]#[O+].[Re+].[Ru+2].c1ccc(-c2ccnc3c2ccc2c(-c4ccccc4)ccnc23)cc1.c1cnc2c(c1)c1nc(-c3ccncc3)[nH]c1c1cccnc12.c1cnc2c(c1)ccc1cccnc12.c1cnc2c(c1)ccc1cccnc12 [RuRe-2, [Ru(phen)2LRe(CO)3(DIP)](PF6)3] | no significant change | typical apoptotic characteristics | – | – | 22.26% | 3.9%
